Measurements: ChEMBL document CHEMBL1146189, “Antiproliferation and apoptosis induced by C-glycosides in human leukemia cancer cells” (Bioorg Med Chem Lett, 2006)
Active and inactive are the calls of the source. The calls are words filed in the database; no cut-off is given here.

How the values were obtained:
HL-60 [1] = test: Antiproliferative activity against human HL60 cells by MTT assay; type: functional, cell-based
HL-60 [2] = test: Induction of apoptosis in human HL60 cells; type: functional, cell-based
[3] = Homo sapiens, HL-60, read-out: IC50

Structure (SMILES)	IC50 (HL-60 [1]; [3])	IC50 (HL-60 [1]; hl-60)	Activity (HL-60 [2])
C=C[C@@H]1O[C@H](COCc2ccccc2)[C@@H](OCc2ccccc2)[C@H](OCc2ccccc2)[C@H]1O	11.8 µM	–	–
CC(=O)OC[C@@H]1O[C@H](COCc2ccccc2)[C@@H](OCc2ccccc2)[C@H](OCc2ccccc2)[C@H]1OCc1ccccc1	–	Not Active	–
OC[C@H]1O[C@@H](Cc2ccccc2)[C@H](O)[C@@H](OCc2ccccc2)[C@@H]1OCc1ccccc1	20.2 µM	–	–
O[C@@H]1[C@@H](OCc2ccccc2)[C@H](OCc2ccccc2)[C@@H](COCc2ccccc2)O[C@H]1CC1CC1	–	Not Active	–
CC(C)(C)C[C@@H]1O[C@H](COCc2ccccc2)[C@@H](OCc2ccccc2)[C@H](OCc2ccccc2)[C@H]1O	–	Not Active	–
CC1(C)OC[C@@H]2O[C@H](COCc3ccccc3)[C@@H](OCc3ccccc3)[C@H](OCc3ccccc3)[C@H]2O1	12.5 µM	–	Active
CCC[C@H]1O[C@H](COCc2ccccc2)[C@@H](OCc2ccccc2)[C@H](OCc2ccccc2)[C@H]1O	28.2 µM	–	–
CCC[C@@H]1O[C@H](COCc2ccccc2)[C@@H](OCc2ccccc2)[C@H](OCc2ccccc2)[C@H]1O	11.7 µM	–	–
OCCC[C@@H]1O[C@H](COCc2ccccc2)[C@@H](OCc2ccccc2)[C@H](OCc2ccccc2)[C@H]1O	19.3 µM	–	–
C=C[C@H]1O[C@H](COCc2ccccc2)[C@@H](OCc2ccccc2)[C@H](OCc2ccccc2)[C@H]1O	–	Not Active	–
C[C@H]1O[C@H](COCc2ccccc2)[C@@H](OCc2ccccc2)[C@H](OCc2ccccc2)[C@H]1O	–	Not Active	–
CC(C)(C)C[C@H]1O[C@H](COCc2ccccc2)[C@@H](OCc2ccccc2)[C@H](OCc2ccccc2)[C@H]1O	12.1 µM	–	–
CC(=O)OC[C@H]1O[C@@H](Cc2ccccc2)[C@H](OC(C)=O)[C@@H](OC(C)=O)[C@@H]1OC(C)=O	–	Not Active	–
C#CC[C@@H]1O[C@H](COCc2ccccc2)[C@@H](OCc2ccccc2)[C@H](OCc2ccccc2)[C@H]1O	–	Not Active	–
CC(C)C[C@@H]1O[C@H](COCc2ccccc2)[C@@H](OCc2ccccc2)[C@H](OCc2ccccc2)[C@H]1O	8.5 µM	–	Active
O[C@@H]1[C@@H](OCc2ccccc2)[C@H](OCc2ccccc2)[C@@H](COCc2ccccc2)O[C@@H]1c1ccccc1	–	Not Active	–
C=CC[C@@H]1O[C@H](COCc2ccccc2)[C@@H](OCc2ccccc2)[C@H](OCc2ccccc2)C1=O	31.8 µM	–	–
CC(C)C[C@@H]1O[C@H](COCc2ccccc2)[C@@H](OCc2ccccc2)[C@H](OCc2ccccc2)[C@@H]1O	–	Not Active	–
O[C@@H]1[C@@H](OCc2ccccc2)[C@H](OCc2ccccc2)[C@@H](COCc2ccccc2)O[C@@H]1Cc1ccccc1	–	Not Active	–
CC(=O)O[C@@H]1[C@@H](OCc2ccccc2)[C@H](OCc2ccccc2)[C@@H](COCc2ccccc2)O[C@@H]1Cc1ccccc1	–	Not Active	–
C[C@@H]1O[C@H](COCc2ccccc2)[C@@H](OCc2ccccc2)[C@H](OCc2ccccc2)[C@H]1O	8.4 µM	–	–
C=CC[C@@H]1O[C@H](COCc2ccccc2)[C@@H](OCc2ccccc2)[C@H](OCc2ccccc2)[C@H]1OC(C)=O	26.9 µM	–	–

Structure (SMILES)	IC50 (HL-60 [1]; [3])	IC50 (HL-60 [1]; hl-60)	Activity (HL-60 [2])
O[C@@H]1[C@@H](OCc2ccccc2)[C@H](OCc2ccccc2)[C@@H](COCc2ccccc2)O[C@H]1CC1CCCCC1	4.1 µM	–	–
CCC[C@@H]1O[C@H](COC)[C@@H](OC)[C@H](OC)[C@H]1O	–	Not Active	–
c1ccc(COC[C@H]2OCC[C@@H](OCc3ccccc3)[C@@H]2OCc2ccccc2)cc1	39.3 µM	–	–
OC[C@H]1O[C@@H](Cc2ccccc2)[C@H](O)[C@@H](OCc2ccccc2)[C@@H]1O	–	Not Active	–
CC(C)C[C@@H]1O[C@H](COCc2ccccc2)[C@H](OCc2ccccc2)[C@H](OCc2ccccc2)[C@H]1O	–	Not Active	–
CCC[C@H]1O[C@H](COCc2ccccc2)[C@H](OCc2ccccc2)[C@H](OCc2ccccc2)[C@H]1O	–	Not Active	–
O[C@H]1CO[C@H](COCc2ccccc2)[C@@H](OCc2ccccc2)[C@@H]1OCc1ccccc1	–	Not Active	–
C=CC[C@@H]1O[C@H](CO)[C@@H](O)[C@H](O)[C@H]1O	–	Not Active	–
c1ccc(COC[C@H]2O[C@H]3C[C@H]3[C@@H](OCc3ccccc3)[C@@H]2OCc2ccccc2)cc1	–	Not Active	–
C=C[C@H]1O[C@H](COCc2ccccc2)[C@@H](OCc2ccccc2)[C@H](OCc2ccccc2)[C@H]1OC(C)=O	–	Not Active	–
CCCC[C@H]1O[C@H](COCc2ccccc2)[C@@H](OCc2ccccc2)[C@H](OCc2ccccc2)[C@H]1O	–	Not Active	–
CC(C)C[C@H]1O[C@H](COCc2ccccc2)[C@@H](OCc2ccccc2)[C@H](OCc2ccccc2)[C@@H]1O	–	Not Active	–
CC(C)C[C@H]1O[C@H](COCc2ccccc2)[C@H](OCc2ccccc2)[C@H](OCc2ccccc2)[C@H]1O	–	Not Active	–
O[C@@H]1[C@@H](OCc2ccccc2)[C@H](OCc2ccccc2)[C@@H](COCc2ccccc2)O[C@@]12CCCO2	–	Not Active	–
O[C@@H]1[C@@H](OCc2ccccc2)[C@H](OCc2ccccc2)[C@@H](COCc2ccccc2)O[C@H]1c1ccccc1	26.3 µM	–	–
ClC1(Cl)[C@@H]2[C@@H](OCc3ccccc3)[C@H](OCc3ccccc3)[C@@H](COCc3ccccc3)O[C@@H]21	46.4 µM	–	–
CCC[C@@H]1O[C@H](COCc2ccccc2)[C@@H](OCc2ccccc2)[C@H](OCc2ccccc2)[C@@H]1O	–	Not Active	–
CC[C@H]1O[C@H](COCc2ccccc2)[C@@H](OCc2ccccc2)[C@H](OCc2ccccc2)[C@H]1O	–	Not Active	–
CC(C)C[C@H]1O[C@H](COCc2ccccc2)[C@@H](OCc2ccccc2)[C@H](OCc2ccccc2)[C@H]1O	13.9 µM	–	–
O[C@@H]1[C@@H](OCc2ccccc2)[C@H](OCc2ccccc2)[C@@H](COCc2ccccc2)O[C@]12CCCO2	–	Not Active	–
OC[C@H]1O[C@@H](Cc2ccccc2)[C@H](O)[C@@H](O)[C@@H]1OCc1ccccc1	–	Not Active	–
CCC[C@H]1O[C@H](COCc2ccccc2)[C@@H](OCc2ccccc2)[C@H](OCc2ccccc2)[C@@H]1O	–	Not Active	–

Structure (SMILES)	IC50 (HL-60 [1]; [3])	IC50 (HL-60 [1]; hl-60)	Activity (HL-60 [2])
CCCCC[C@@H]1O[C@H](COCc2ccccc2)[C@@H](OCc2ccccc2)[C@H](OCc2ccccc2)[C@H]1O	–	Not Active	–
O[C@@H]1[C@@H](O)[C@H](Cc2ccccc2)O[C@H](COCc2ccccc2)[C@H]1OCc1ccccc1	26.6 µM	–	–
CC[C@@H]1O[C@H](COCc2ccccc2)[C@@H](OCc2ccccc2)[C@H](OCc2ccccc2)[C@H]1O	8.2 µM	–	Active
CC(=O)OC[C@@H]1O[C@H](COCc2ccccc2)[C@@H](OCc2ccccc2)[C@H](OCc2ccccc2)[C@H]1OC(C)=O	–	Not Active	–
OC[C@H]1O[C@@H](Cc2ccccc2)[C@H](O)[C@@H](O)[C@@H]1O	–	Not Active	–
C=CC[C@@H]1O[C@H](COCc2ccccc2)[C@@H](OCc2ccccc2)[C@H](OCc2ccccc2)[C@H]1O	15.1 µM	–	Active
CCCCCCCCCCCCCCCOC[C@H]1O[C@@H](CCC)[C@H](O)[C@@H](OCCCCCCCCCCCCCCC)[C@@H]1OCCCCCCCCCCCCCCC	–	Not Active	–
C=CC[C@@H]1O[C@H](COC(C)=O)[C@@H](OC(C)=O)[C@H](OC(C)=O)[C@H]1OC(C)=O	–	Not Active	–
CCCC[C@@H]1O[C@H](COCc2ccccc2)[C@@H](OCc2ccccc2)[C@H](OCc2ccccc2)[C@H]1O	–	Not Active	–
O[C@@H]1[C@@H](OCc2ccccc2)[C@H](OCc2ccccc2)[C@@H](COCc2ccccc2)O[C@H]1Cc1ccccc1	8.7 µM	–	–
O[C@@H]1[C@@H](O)[C@H](Cc2ccccc2)O[C@H](COCc2ccccc2)[C@H]1O	–	Not Active	–
CC(=O)O[C@@H]1[C@@H](OCc2ccccc2)[C@H](OCc2ccccc2)[C@@H](COCc2ccccc2)O[C@H]1Cc1ccccc1	–	Not Active	–
CCCCOC[C@H]1O[C@@H](CCC)[C@H](O)[C@@H](OCCCC)[C@@H]1OCCCC	–	Not Active	–
CCCCCCCCCCCCCCCOC[C@H]1O[C@H](CCC)[C@H](O)[C@@H](OCCCCCCCCCCCCCCC)[C@@H]1OCCCCCCCCCCCCCCC	–	Not Active	–
C=CC[C@@H]1O[C@H](COCc2ccccc2)[C@@H](OCc2ccccc2)[C@H](OCc2ccccc2)C1O (single isomer, unassigned)	–	Not Active	–
CCC[C@@H]1O[C@H](COCc2ccccc2)[C@H](OCc2ccccc2)[C@H](OCc2ccccc2)[C@H]1O	–	Not Active	–
O[C@@H]1[C@@H](OCc2ccccc2)[C@H](OCc2ccccc2)[C@@H](COCc2ccccc2)O[C@@H]1CC1CCCCC1	17.2 µM	–	–
CCC[C@@H]1O[C@H](CO)[C@@H](O)[C@H](O)[C@H]1O	–	Not Active	–
O[C@@H]1[C@@H](OCc2ccccc2)[C@H](O)[C@@H](COCc2ccccc2)O[C@H]1Cc1ccccc1	35.3 µM	–	–
c1ccc(COC[C@H]2O[C@@H]3C[C@@H]3[C@@H](OCc3ccccc3)[C@@H]2OCc2ccccc2)cc1	38.5 µM	–	–
